Values joined by “and” are separate entries in the source; they are usually repeats but may differ in a detail not shown here. Equal entries are not always repeated.
What was measured:
HEC1B = experiment: CFA 10-14 day clonogenic assay; assay type: cell-based; details: Homo sapiens, HEC-1B
SNGM = experiment: CFA 10-14 day clonogenic assay; assay type: cell-based; details: Homo sapiens
SW48 xenografts = experiment: SW48 cell-derived xenograft efficacy, HRO761 orally once daily; assay type: in vivo, mouse
Description: All animal studies were conducted in accordance with ethics and procedures covered by permit BS-2275 and BS-1975 issued by the Kantonales Veterinäramt Basel-Stadt and in strict adherence to guidelines of the Eidgenössisches Tierschutzgesetz and the Eidgenössische Tierschutzverordnung, Switzerland. All animal studies were approved by the internal ethics committee. All animals had access to food and water ad libitum and were identified with transponders. They were housed in a specific-pathogen-free facility in IVC racks under a 12 h–12 h light–dark cycle. To establish cell-line-derived xenograft models, 6–7-week-old female athymic nude (Crl:NU(NCr)-Foxn1^nu) or SCID-BEIGE (CB17.Cg-PrkdcscidLystbg-J/Crl) mice from Charles River were engrafted subcutaneously with 5 million tumour cells in HBSS (H6648, Sigma-Aldrich). For SNU-407, Lovo, IM95, RL95.2, Ishikawa and IGROV-1, the cells were concentrated in 50% Matrigel (354234, Corning). Patient-derived xenografts were induced and expanded by transplantation as previously described. […] For the efficacy experiment, mice were randomized into groups (n = 5–6) for a mean tumour size of 100–150 mm^3. […] Blood samples were collected on day 7 and 91. […] Tumour responses are reported with the measures of tumour volumes from the treatment start. […] Animals were randomized (n = 3) and tumour samples were collected at 0, 1, 4, 8 and 24 h on the first day and then collected 4 h after the last treatment on day 3, 8, 10, 14 (including a 24 h timepoint), 17 and 21. Tumours were excised, weighed, either frozen in liquid nitrogen and cryogenic dry pulverized with the CryoPrep system (model CP-02, Covaris) or processed to FFPE after fixation. […] On day 12, blood samples were collected for PK analysis. On the last day (3 h after the last treatment), tumours were excised, weighed, frozen in liquid nitrogen and cryogenic dry pulverized for PD analysis.

## CCc1c(N2CCN(C(=O)c3ncnc(C)c3O)CC2)c(=O)n2nc(C3=CCOCC3)nc2n1CC(=O)Nc1ccc(C(F)(F)F)cc1Cl [HRO761]
HEC1B
  GI50: ≥ 10 µM
SNGM
  GI50: 7.29 µM
SW48 xenografts; 10 mg/kg
  max Reg (%) or max T/C (%): 94.00%
SW48 xenografts; 20 mg per kg, once daily oral
  tumour response: tumour stasis
SW48 xenografts; 20 mg/kg
  max Reg (%) or max T/C (%): 6.00%
SW48 xenografts; 30 mg/kg
  max Reg (%) or max T/C (%): -69.00%
SW48 xenografts; 40 mg/kg
  max Reg (%) or max T/C (%): -75.00%
SW48 xenografts; 60 mg/kg
  max Reg (%) or max T/C (%): -85.00%
SW48 xenografts; 120 mg/kg
  max Reg (%) or max T/C (%): -89.00%
SW48 xenografts; HRO761 20mg/kg, day 0 post 1st dose
  Mean TVol: 148.57 mm3
SW48 xenografts; HRO761 20mg/kg, day 3 post 1st dose
  Mean TVol: 172.19 mm3
SW48 xenografts; HRO761 20mg/kg, day 7 post 1st dose
  Mean TVol: 214.06 mm3
SW48 xenografts; HRO761 20mg/kg, day 10 post 1st dose
  Mean TVol: 199.01 mm3
SW48 xenografts; HRO761 20mg/kg, day 14 post 1st dose
  Mean TVol: 193.54 mm3
SW48 xenografts; HRO761 20mg/kg, day 14 post 1st dose, 20 mg/kg
  TVol, individual mouse: 183.48 mm3 and 119.53 mm3 and 120.69 mm3 and 296.11 mm3 and 247.89 mm3
SW48 xenografts; HRO761 20mg/kg, day 17 post 1st dose
  Mean TVol: 171.07 mm3
SW48 xenografts; HRO761 20mg/kg, day 17 post 1st dose, 20 mg/kg
  TVol, individual mouse: 183.94 mm3 and 118.26 mm3 and 128.1 mm3 and 182.42 mm3 and 242.62 mm3
SW48 xenografts; HRO761 20mg/kg, day 21 post 1st dose
  Mean TVol: 210.51 mm3
SW48 xenografts; HRO761 20mg/kg, day 21 post 1st dose, 20 mg/kg
  TVol, individual mouse: 237.44 mm3 and 188.88 mm3 and 167.52 mm3 and 218.78 mm3 and 239.95 mm3
SW48 xenografts; HRO761 20mg/kg, day 24 post 1st dose
  Mean TVol: 217.13 mm3
SW48 xenografts; HRO761 20mg/kg, day 24 post 1st dose, 20 mg/kg
  TVol, individual mouse: 213.9 mm3 and 149.74 mm3 and 186.94 mm3 and 199.91 mm3 and 335.14 mm3
SW48 xenografts; HRO761 20mg/kg, day 28 post 1st dose
  Mean TVol: 270.81 mm3
SW48 xenografts; HRO761 20mg/kg, day 28 post 1st dose, 20 mg/kg
  TVol, individual mouse: 244.97 mm3 and 189.99 mm3 and 254.46 mm3 and 269.33 mm3 and 395.3 mm3
SW48 xenografts; HRO761 20mg/kg, day 31 post 1st dose
  Mean TVol: 317.23 mm3
SW48 xenografts; HRO761 20mg/kg, day 35 post 1st dose
  Mean TVol: 380.57 mm3
SW48 xenografts; HRO761 20mg/kg, day 38 post 1st dose
  Mean TVol: 438.75 mm3
SW48 xenografts; HRO761 20mg/kg, day 42 post 1st dose
  Mean TVol: 626.99 mm3
SW48 xenografts; HRO761 20mg/kg, day 45 post 1st dose
  Mean TVol: 658.99 mm3
SW48 xenografts; HRO761 40mg/kg, day 0 post 1st dose
  Mean TVol: 148.59 mm3
SW48 xenografts; HRO761 40mg/kg, day 3 post 1st dose
  Mean TVol: 162.25 mm3
SW48 xenografts; HRO761 40mg/kg, day 7 post 1st dose
  Mean TVol: 181.10 mm3
SW48 xenografts; HRO761 40mg/kg, day 10 post 1st dose
  Mean TVol: 146.66 mm3
SW48 xenografts; HRO761 40mg/kg, day 14 post 1st dose
  Mean TVol: 133.58 mm3
SW48 xenografts; HRO761 40mg/kg, day 14 post 1st dose, 40 mg/kg
  TVol, individual mouse: 137.47 mm3 and 92.79 mm3 and 146.32 mm3 and 135.46 mm3 and 155.86 mm3
SW48 xenografts; HRO761 40mg/kg, day 17 post 1st dose
  Mean TVol: 95.84 mm3
SW48 xenografts; HRO761 40mg/kg, day 17 post 1st dose, 40 mg/kg
  TVol, individual mouse: 84.05 mm3 and 68.24 mm3 and 117.68 mm3 and 91.67 mm3 and 117.57 mm3
SW48 xenografts; HRO761 40mg/kg, day 21 post 1st dose
  Mean TVol: 84.88 mm3
SW48 xenografts; HRO761 40mg/kg, day 21 post 1st dose, 40 mg/kg
  TVol, individual mouse: 65.27 mm3 and 62.26 mm3 and 114.98 mm3 and 87.79 mm3 and 94.1 mm3
SW48 xenografts; HRO761 40mg/kg, day 24 post 1st dose
  Mean TVol: 52.61 mm3
SW48 xenografts; HRO761 40mg/kg, day 24 post 1st dose, 40 mg/kg
  TVol, individual mouse: 40.05 mm3 and 34.46 mm3 and 63.81 mm3 and 55.22 mm3 and 69.51 mm3
SW48 xenografts; HRO761 40mg/kg, day 28 post 1st dose
  Mean TVol: 44.44 mm3
SW48 xenografts; HRO761 40mg/kg, day 28 post 1st dose, 40 mg/kg
  TVol, individual mouse: 41.72 mm3 and 27.23 mm3 and 46.41 mm3 and 45.86 mm3 and 60.97 mm3
SW48 xenografts; HRO761 40mg/kg, day 31 post 1st dose
  Mean TVol: 37.24 mm3
SW48 xenografts; HRO761 40mg/kg, day 35 post 1st dose
  Mean TVol: 32.88 mm3
SW48 xenografts; HRO761 40mg/kg, day 38 post 1st dose
  Mean TVol: 33.30 mm3
SW48 xenografts; HRO761 40mg/kg, day 42 post 1st dose
  Mean TVol: 36.90 mm3
SW48 xenografts; HRO761 40mg/kg, day 45 post 1st dose
  Mean TVol: 34.79 mm3
SW48 xenografts; HRO761 40mg/kg, day 49 post 1st dose
  Mean TVol: 37.27 mm3
SW48 xenografts; HRO761 40mg/kg, day 52 post 1st dose
  Mean TVol: 35.78 mm3
SW48 xenografts; HRO761 40mg/kg, day 56 post 1st dose
  Mean TVol: 46.42 mm3
SW48 xenografts; HRO761 40mg/kg, day 59 post 1st dose
  Mean TVol: 55.91 mm3
SW48 xenografts; HRO761 40mg/kg, day 63 post 1st dose
  Mean TVol: 77.49 mm3
SW48 xenografts; HRO761 40mg/kg, day 66 post 1st dose
  Mean TVol: 84.81 mm3
SW48 xenografts; HRO761 40mg/kg, day 70 post 1st dose
  Mean TVol: 105.06 mm3
SW48 xenografts; HRO761 40mg/kg, day 73 post 1st dose
  Mean TVol: 118.43 mm3
SW48 xenografts; HRO761 40mg/kg, day 76 post 1st dose
  Mean TVol: 139.13 mm3
SW48 xenografts; HRO761 40mg/kg, day 79 post 1st dose
  Mean TVol: 184.71 mm3
SW48 xenografts; HRO761 40mg/kg, day 83 post 1st dose
  Mean TVol: 215.37 mm3
SW48 xenografts; HRO761 40mg/kg, day 86 post 1st dose
  Mean TVol: 261.40 mm3
SW48 xenografts; HRO761 40mg/kg, day 90 post 1st dose
  Mean TVol: 329.03 mm3
SW48 xenografts; HRO761 40mg/kg, day 92 post 1st dose
  Mean TVol: 334.15 mm3
SW48 xenografts; HRO761 60mg/kg, day 0 post 1st dose
  Mean TVol: 148.59 mm3
SW48 xenografts; HRO761 60mg/kg, day 3 post 1st dose
  Mean TVol: 184.38 mm3
SW48 xenografts; HRO761 60mg/kg, day 7 post 1st dose
  Mean TVol: 168.35 mm3

Source: publication PMC11078746 (Nature, 2024)
